According to US12319679B2, “Morpholinyl, piperazinyl, oxazepanyl and diazepanyl O-glycoprotein-2-acetamido-2-deoxy-3-d-glucopyranosidase inhibitors” (BIOGEN MA INC., priority 2018, dated 2025):
pIC50: −log10 of the molar value. Counter-ions that a name gives are not always drawn.

What follows are compounds tested against T1, Recombinant full length human OGA enzyme (Homo sapiens, UniProt O60502) (assay: OGA Enzyme Inhibition Biochemical Assay). Conditions: 1 nM OGA, 100 μM 4-MUGlcNAc (Km), pH 6.4, 90 minutes at room temperature; 10-point dose-response starting from 20 μM.
T1 construct: Recombinant full length human OGA enzyme was purchased from Origene; purchased Origene
T1 sequence (O60502 1-916): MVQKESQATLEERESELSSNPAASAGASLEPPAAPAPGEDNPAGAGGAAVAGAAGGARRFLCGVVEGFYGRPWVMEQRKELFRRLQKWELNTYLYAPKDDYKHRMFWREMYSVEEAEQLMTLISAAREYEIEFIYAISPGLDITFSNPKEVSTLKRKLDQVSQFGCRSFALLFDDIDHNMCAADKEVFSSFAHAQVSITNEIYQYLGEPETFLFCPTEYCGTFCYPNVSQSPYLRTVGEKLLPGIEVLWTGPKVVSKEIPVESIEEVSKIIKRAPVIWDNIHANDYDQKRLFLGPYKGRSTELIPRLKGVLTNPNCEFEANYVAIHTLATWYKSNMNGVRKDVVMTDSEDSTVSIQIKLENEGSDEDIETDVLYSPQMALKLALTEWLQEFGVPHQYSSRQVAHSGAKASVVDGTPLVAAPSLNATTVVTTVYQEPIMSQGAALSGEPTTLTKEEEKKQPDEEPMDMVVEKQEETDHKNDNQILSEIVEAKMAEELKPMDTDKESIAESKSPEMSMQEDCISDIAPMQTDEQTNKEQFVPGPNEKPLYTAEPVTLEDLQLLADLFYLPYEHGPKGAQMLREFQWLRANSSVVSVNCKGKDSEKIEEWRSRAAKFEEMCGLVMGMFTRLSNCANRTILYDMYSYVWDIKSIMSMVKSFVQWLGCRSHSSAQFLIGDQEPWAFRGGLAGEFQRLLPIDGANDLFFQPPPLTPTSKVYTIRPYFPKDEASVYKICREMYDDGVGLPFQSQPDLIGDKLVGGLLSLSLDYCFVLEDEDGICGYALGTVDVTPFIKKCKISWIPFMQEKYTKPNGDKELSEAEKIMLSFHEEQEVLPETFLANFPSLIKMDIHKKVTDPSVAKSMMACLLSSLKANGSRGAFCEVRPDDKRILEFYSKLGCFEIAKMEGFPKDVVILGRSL
Procedure: OGA Enzyme Inhibition Biochemical Assay
Recombinant full length human OGA enzyme was purchased from Origene. 4-MUGlCNAc substrate was purchased from Sigma. All other reagents were purchased from Sigma or Fisher. Assay buffer consists of the McIlvaine buffer system, pH 6.4 (0.2M Na2HPO4 mixed with 0.1M citric acid) and 0.01% BSA. Reactions consist of 1 nM OGA, 100 μM 4-MUGlcNAc (Km), and compound in a final volume of 10 μl. Reactions were incubated for 90 minutes at room temperature and quenched with 40 μl of 3M glycine, pH 10 and read on a Perkin Elmer Envision plate reader (Ex: 355 nm/Em: 460 nm). Compounds were tested with a 10-point dose-response starting from 20 μM with a 4-fold dilution. Data was fit using GraphPad Prism using a 4-paramter fit with variable slope.

SMILES	pIC50
COc1cc(C[C@@H]2CN(Cc3cnc(NC(C)=O)s3)CCO2)ccc1F [Example 1-6, (R)—N-(5-((2-(4-fluoro-3-methoxybenzyl)morpholino)methyl)thiazol-2-yl)acetamide]	7.00
CC(=O)Nc1ncc(CN2CCOC(C(C)c3ncc(F)cn3)C2)s1 (single isomer, unassigned) [Example 1-25 Peak 4]	5.89
CC(=O)Nc1ncc(CN2CCO[C@H](Cc3ccc(C)nc3)C2)s1 [Example 1-19, (R)—N-(5-((2-((6-methylpyridin-3-yl)methyl)morpholino)methyl)thiazol-2-yl)acetamide]	6.96
CC(=O)Nc1ncc(CN2CCCOC(Cc3cc(C)nc(C)c3)C2)s1 (racemic) [Example 1-36, N-(5-((2-((2,6-dimethylpyridin-4-yl)methyl)-1,4-oxazepan-4-yl)methyl)thiazol-2-yl)acetamide]	7.24
CC(=O)Nc1ncc(CN2CCO[C@H](Cc3ccnc(C)c3)C2)s1 [Example 1-20, (R)—N-(5-((2-((2-methylpyridin-4-yl)methyl)morpholino)methyl)thiazol-2-yl)acetamide]	7.08
COc1cc(C[C@@H]2CN(Cc3cnc(NC(C)=O)s3)[C@@H](C)CO2)ccn1 [Example 1-30, N-(5-(((2R,5S)-2-((2-methoxypyridin-4-yl)methyl)-5-methylmorpholino)methyl)thiazol-2-yl)acetamide]	4.77
CC(=O)Nc1ncc(CN2CCO[C@H](Cc3ccnc(C(F)(F)F)n3)C2)s1 [Example 1-9]	5.82
COc1cc(C[C@@H]2CN(Cc3cnc(NC(C)=O)s3)CCO2)ncn1 [Example 1-8, (R)—N-(5-((2-((6-methoxypyrimidin-4-yl)methyl)morpholino)methyl)thiazol-2-yl)acetamide]	6.89
CC(=O)Nc1ncc(CN2C[C@H](Cc3ncc(F)cn3)OC[C@H]2C)s1 [Example 1-29, N-(5-(((2S,5R)-2-((5-fluoropyrimidin-2-yl)methyl)-5-methylmorpholino)methyl)thiazol-2-yl)acetamide]	4.92
CC(=O)Nc1ncc(CN2CCNC(Cc3ncc(F)cn3)C2)s1 (single isomer, unassigned) [Example 2-20 Peak 2]	< 4.70
COc1nccc(C[C@@H]2CN(Cc3cnc(NC(C)=O)s3)CCO2)c1F [Example 1-15, (R)—N-(5-((2-((3-fluoro-2-methoxypyridin-4-yl)methyl)morpholino)methyl)thiazol-2-yl)acetamide]	7.25
CC(=O)Nc1ncc(CN2CCO[C@H](Cc3cc(C)nc(C)c3)C2)s1 [Example 1-21, (R)—N-(5-((2-((2,6-dimethylpyridin-4-yl)methyl)morpholino)methyl)thiazol-2-yl)acetamide]	7.42
CC(=O)Nc1ncc(CN2CCO[C@H](Cc3ccc(C)cn3)C2)s1 [Example 1-16, (R)—N-(5-((2-((5-methylpyridin-2-yl)methyl)morpholino)methyl)thiazol-2-yl)acetamide]	6.80
CC(=O)Nc1ncc(CN2CCOCC(Cc3cc(C)nc(C)c3)C2)s1 (racemic) [Example 1-42, N-(5-((6-((2,6-dimethylpyridin-4-yl)methyl)-1,4-oxazepan-4-yl)methyl)thiazol-2-yl)acetamide]	7.72
CCOc1cc(C[C@@H]2CN(Cc3cnc(NC(C)=O)s3)CCO2)ccn1 [Example 1-11, (R)—N-(5-((2-((2-ethoxypyridin-4-yl)methyl)morpholino)methyl)thiazol-2-yl)acetamide]	6.89
CC(=O)Nc1ncc(CN2CCOC(C(C)c3ncc(F)cn3)C2)s1 (single isomer, unassigned) [Example 1-25 Peak 2]	7.14
CC(=O)Nc1ncc(CN2C[C@@H](Cc3ccnc(C)c3)OC[C@@H]2C)s1 [Example 1-32, N-(5-(((2R,5S)-5-methyl-2-((2-methylpyridin-4-yl)methyl)morpholino)methyl)thiazol-2-yl)acetamide]	8.85
CC(=O)Nc1ncc(CN2CCO[C@H](Cc3ccnc(OC(F)F)c3)C2)s1 [Example 1-17, (R)—N-(5-((2-((2-(difluoromethoxy)pyridin-4-yl)methyl)morpholino)methyl)thiazol-2-yl)acetamide]	6.87
COc1cc(CC2CN(Cc3cnc(NC(C)=O)s3)CCN2C)ccn1 (single isomer, unassigned) [Example 4-12 Peak 2]	< 4.70
CC(=O)Nc1ncc(CN2C[C@@H](Cc3cc(C)nc(C)c3)OC[C@@H]2C)s1 [Example 1-31]	8.05
CC(=O)Nc1ncc(CN2CCCOC(Cc3ncc(F)cn3)C2)s1 (single isomer, unassigned) [Example 1-39 Peak 1]	7.70
CC(=O)Nc1ncc(CN2CCO[C@H](Cc3ccnc(C)n3)C2)s1 [Example 1-14, (R)—N-(5-((2-((2-methylpyrimidin-4-yl)methyl)morpholino)methyl)thiazol-2-yl)acetamide]	6.74
CC(=O)Nc1ncc(CN2CCOC(C(C)c3ncc(F)cn3)C2)s1 (single isomer, unassigned) [Example 1-25 Peak 1]	8.28
CC(=O)Nc1ncc(CN2C[C@@H](Cc3ccc(C)nc3)OC[C@@H]2C)s1 [Example 1-33, N-(5-(((2R,5S)-5-methyl-2-((6-methylpyridin-3-yl)methyl)morpholino)methyl)thiazol-2-yl)acetamide]	7.51
CC(=O)Nc1ncc(CN2CCNC(Cc3ccc(C)nc3)C2)s1 (single isomer, unassigned) [Example 4-14 Peak 1]	< 4.70

Now from value to compound:

pIC50	SMILES
< 4.70	COc1cc(CC2CN(Cc3cnc(NC(C)=O)s3)CCCN2C(C)=O)ccn1 (centres unmarked) [Example 2-26, N-(5-((4-acetyl-3-((2-methoxypyridin-4-yl)methyl)-1,4-diazepan-1-yl)methyl)thiazol-2-yl)acetamide]
5.80	CC(=O)Nc1ncc(CN2CCN(C)[C@H](Cc3cc(C)nc(C)c3)C2)s1 [Example 4-3, (R)—N-(5-((3-((2,6-dimethylpyridin-4-yl)methyl)-4-methylpiperazin-1-yl)methyl)thiazol-2-yl)acetamide]
6.46	CC(=O)Nc1ncc(CN2CCN[C@@H](Cc3cc(C)nc(C)c3)C2)s1 [Example 4-2, (S)—N-(5-((3-((2,6-dimethylpyridin-4-yl)methyl)piperazin-1-yl)methyl)thiazol-2-yl)acetamide hydrochloride]
7.47	CC(=O)Nc1ncc(CN2C[C@@H](Cc3cc(C)nc(C)c3)N(C)C[C@@H]2C)s1 [Example 2-10]
5.02	CC(=O)Nc1ncc(CN2C[C@@H](Cc3ncc(F)cn3)N(C(C)=O)C[C@@H]2C)s1 [Example 2-7, N-(5-(((2S,5R)-4-acetyl-5-((5-fluoropyrimidin-2-yl)methyl)-2-methylpiperazin-1-yl)methyl)thiazol-2-yl)acetamide]
< 4.70	CC(=O)Nc1ncc(CN2CCN(C)CC(COc3ncc(F)cn3)C2)s1 (centres unmarked) [Example 3-5, N-(5-((6-(((5-fluoropyrimidin-2-yl)oxy)methyl)-4-methyl-1,4-diazepan-1-yl)methyl)thiazol-2-yl)acetamide]
8.01	CC(=O)Nc1ncc(CN2C[C@@H](Cc3ccnc(C)c3)N(C)C[C@@H]2C)s1 [Example 2-2, N-(5-(((2S,5R)-2,4-dimethyl-5-((2-methylpyridin-4-yl)methyl)piperazin-1-yl)methyl)thiazol-2-yl)acetamide]
7.35	CC(=O)Nc1ncc(CN2C[C@@H](Cc3ccc(C)nc3)NC[C@@H]2C)s1 [Example 2-9, N-(5-(((2S,5R)-2-methyl-5-((6-methylpyridin-3-yl)methyl)piperazin-1-yl)methyl)thiazol-2-yl)acetamide]
8.12	COc1cc(C[C@@H]2CN(Cc3cnc(NC(C)=O)s3)[C@@H](C)CN2)ccn1 [Example 2-14, N-(5-(((2S,5R)-5-((2-methoxypyridin-4-yl)methyl)-2-methylpiperazin-1-yl)methyl)thiazol-2-yl)acetamide]
8.13	CC(=O)Nc1ncc(CN2C[C@@H](Cc3ccnc(C)c3)NC[C@@H]2C)s1 [Example 2-1, N-(5-(((2S,5R)-2-methyl-5-((2-methylpyridin-4-yl)methyl)piperazin-1-yl)methyl)thiazol-2-yl)acetamide]
